Among the data in patent US9809532B2, “Uses of histone acetyltransferase activators” (THE TRUSTEES OF COLUMBIA UNIVERSITY IN THE CITY OF NEW YORK, priority 2011, dated 2017) are solubility in water and IC50 values, retold here.

Broadly, the IC50 is the concentration that gives 50% inhibition. The low end stands for greater potency, the high end for weaker potency.

For data set [1] the following is noted: precipitated as soon as put in H2O; cited from earlier work.
In another data set the target is T1, Sirtuin 2 (Homo sapiens, UniProt Q8IXJ6).
T1 sequence (Q8IXJ6 1-389): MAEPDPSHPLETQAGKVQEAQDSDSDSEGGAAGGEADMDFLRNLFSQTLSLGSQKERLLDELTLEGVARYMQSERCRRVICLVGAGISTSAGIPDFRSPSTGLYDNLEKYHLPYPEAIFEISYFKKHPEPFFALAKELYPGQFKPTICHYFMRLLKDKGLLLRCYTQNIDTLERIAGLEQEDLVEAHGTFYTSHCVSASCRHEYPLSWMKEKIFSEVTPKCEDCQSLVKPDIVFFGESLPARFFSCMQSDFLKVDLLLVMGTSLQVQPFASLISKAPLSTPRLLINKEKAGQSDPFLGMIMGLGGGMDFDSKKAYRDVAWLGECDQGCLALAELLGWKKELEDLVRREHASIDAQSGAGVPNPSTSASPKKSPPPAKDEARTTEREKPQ
In words: Sirtuin 2 activity assay (fluorescence). As to conditions: Sirtuin 2.

A further data set deals with T2, Sirtuin 1 (Homo sapiens, UniProt Q96EB6).
T2 sequence (Q96EB6 1-747): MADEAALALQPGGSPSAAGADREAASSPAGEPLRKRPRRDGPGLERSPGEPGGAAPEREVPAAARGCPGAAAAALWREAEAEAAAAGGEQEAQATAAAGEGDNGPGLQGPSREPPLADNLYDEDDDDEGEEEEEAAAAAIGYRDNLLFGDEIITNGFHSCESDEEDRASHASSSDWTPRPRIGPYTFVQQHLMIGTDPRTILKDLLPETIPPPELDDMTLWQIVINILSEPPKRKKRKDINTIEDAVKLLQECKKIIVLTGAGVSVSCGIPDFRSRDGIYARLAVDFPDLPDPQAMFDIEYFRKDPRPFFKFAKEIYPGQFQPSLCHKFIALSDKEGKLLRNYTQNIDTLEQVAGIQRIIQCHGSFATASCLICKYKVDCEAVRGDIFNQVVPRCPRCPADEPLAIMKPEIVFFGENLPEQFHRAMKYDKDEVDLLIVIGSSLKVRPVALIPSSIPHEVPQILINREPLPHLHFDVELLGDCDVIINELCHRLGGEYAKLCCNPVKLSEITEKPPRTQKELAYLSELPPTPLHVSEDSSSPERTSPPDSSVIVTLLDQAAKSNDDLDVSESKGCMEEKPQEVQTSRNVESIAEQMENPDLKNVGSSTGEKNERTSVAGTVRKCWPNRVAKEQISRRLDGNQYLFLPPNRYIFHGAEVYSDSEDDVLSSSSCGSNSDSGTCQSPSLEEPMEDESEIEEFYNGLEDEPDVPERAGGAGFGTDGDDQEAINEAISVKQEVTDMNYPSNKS
Nature of the data set: Sirtuin 1 activity assay (fluorescence).

Turning to `CCOc1ccccc1C(=O)Nc1ccc(Cl)c(C(F)(F)F)c1` [N-(4-chloro-3-trifluoromethyl-phenyl)-2-ethoxy-benzamide], the solubility in water result in data set [1] is on record as “very poorly solubile in water”.

With `O=C(CCCCCCC(=O)Nc1ccccc1)NO` [SAHA, reference compound], the IC50 against Sirtuin 2 and at Sirtuin 1 was more than 10 µM throughout.
